Test results as given in US20250268903A1, “RXFP1 AGONISTS” (BRISTOL-MYERS SQUIBB COMPANY, priority 2021, published 2025).

Target: T1, human RXFP1 (Homo sapiens, UniProt Q9HBX9)
T1 construct: expressed in transfected cells
T1 sequence (Q9HBX9 1-757): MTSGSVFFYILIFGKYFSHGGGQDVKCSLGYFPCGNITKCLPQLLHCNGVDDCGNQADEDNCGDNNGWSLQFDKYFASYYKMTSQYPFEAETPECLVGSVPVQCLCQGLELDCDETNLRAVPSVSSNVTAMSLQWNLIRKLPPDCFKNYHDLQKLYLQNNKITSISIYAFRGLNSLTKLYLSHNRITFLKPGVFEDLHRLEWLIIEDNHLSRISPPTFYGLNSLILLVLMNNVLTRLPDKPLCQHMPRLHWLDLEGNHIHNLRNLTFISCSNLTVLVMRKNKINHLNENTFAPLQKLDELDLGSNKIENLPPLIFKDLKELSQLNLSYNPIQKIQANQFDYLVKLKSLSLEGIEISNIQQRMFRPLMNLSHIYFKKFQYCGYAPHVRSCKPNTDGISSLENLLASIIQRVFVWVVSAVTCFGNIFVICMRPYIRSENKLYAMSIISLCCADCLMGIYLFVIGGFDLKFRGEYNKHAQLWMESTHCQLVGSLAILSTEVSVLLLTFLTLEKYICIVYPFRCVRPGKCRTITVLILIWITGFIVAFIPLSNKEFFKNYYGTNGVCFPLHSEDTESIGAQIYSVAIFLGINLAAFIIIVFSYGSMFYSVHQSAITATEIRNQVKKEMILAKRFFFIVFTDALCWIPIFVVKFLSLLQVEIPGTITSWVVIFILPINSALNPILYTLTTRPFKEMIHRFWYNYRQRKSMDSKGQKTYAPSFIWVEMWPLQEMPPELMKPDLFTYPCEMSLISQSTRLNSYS
Experiment: hRXFP1 HEK293 cAMP assay (HTRF)
Type: cell-based
Details: HEK293 cells stably expressing human RXFP1, 30 min at room temperature
In short: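 In a stable human RXFP1 HEK293 line, compounds acted for 30 min at RT in buffer with 0.5 mM IBMX. HTRF then quantified cellular cAMP.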

Question: With `COc1ccc(C(=O)N2CC[C@@H](O)C2)cc1C(=O)N[C@H]1[C@@H](C(=O)Nc2ccc(F)c(C(F)(F)F)c2)[C@H]2CC[C@@H]1/C2=C\C1CC1` [Example 244, (1R,2S,3R,4R,7Z)-7-(cyclopropyl-methylidene)-N-[4-fluoro-3-(trifluoromethyl)phenyl]-3-{5-[(3R)-3-hydroxypyrrolidine-1-carbonyl]-2-methoxybenzamido} bicyclo[2.2.1]heptane-2-carboxamide] as the molecule, how does the EC50 read?
Answer: 11 nM

Question: `COc1ccc(CCC(C)(C)O)cc1C(=O)NC1C2CCC(/C2=C/CC2CCC2)[C@@H]1C(=O)Nc1ccc(F)c(C(F)(F)F)c1` (stereo partly shown) [Example 174, (7Z)-7-(2-cyclobutylethylidene)-N-[4-fluoro-3-(trifluoromethyl)phe-nyl]-3-[5-(3-hydroxy-3-methylbutyl)-2-methoxybenzamido] bicyclo[2.2.1]heptane-2-carboxamide] was tested. Which EC50 did it give?
Answer: 66 nM

Question: How did the EC50 turn out when `COc1ccc(COC2CCC(OCc3ccccc3)CC2)cc1C(=O)N[C@@H]1C2CCC(/C2=C/C2CC2)[C@@H]1C(=O)Nc1ccc(F)c(C(F)(F)F)c1` (single isomer, unassigned) [Example 24] was run?
Answer: 1810 nM

Question: With `COc1ccc(C(=O)N2CC[C@H](O)C2)cc1C(=O)N[C@H]1[C@@H](C(=O)Nc2ccc(F)c(C(F)(F)F)c2)[C@H]2CC[C@@H]1/C2=C\C1CC1` [Example 254, (1R,2S,3R, 4R,7Z)-7-(cyclopropyl-methylidene)-N-[4-fluoro-3-(trifluoromethyl)phenyl]-3-{5-[(3S)-3-hydroxypyrrolidine-1-carbonyl]-2-methoxybenzamido} bicyclo[2.2.1] heptane-2-carboxamide] as the molecule, how does the EC50 read?
Answer: 54 nM

Question: With `COC(=O)C1CC(c2ccc(OC)c(C(=O)N[C@H]3[C@@H](C(=O)Nc4ccc(F)c(C(F)(F)F)c4)[C@H]4CC[C@@H]3/C4=C\C(F)(F)F)c2)C1` (stereo partly drawn) [Example 329, methyl 3-(3-{[(1R,2R,3S,4R,7Z)-3-{[4-fluoro-3-(trifluoromethyl)phenyl]carbamoyl}-7-(2,2,2-trifluoroethylidene)bicyclo[2.2.1]heptan-2-yl]carbamoyl}-4-methoxyphenyl) cyclobutane-1-carboxylate] as the molecule, how does the EC50 read?
Answer: 210 nM

Question: Which EC50 does the source give for `COc1ccc(CC(=O)N2CCC(C)(O)C2)cc1C(=O)NC1C(C(=O)Nc2ccc(F)c(C(F)(F)F)c2)[C@H]2CC[C@@H]1/C2=C\C1CC1` (stereo partly drawn) [Example 357, (1R,4R,7Z)-7-(cyclopropyl-methylidene)-N-[4-fluoro-3-(trifluoromethyl)phenyl]-3-{5-[2-(3-hydroxy-3-methylpyrrolidin-1-yl)-2-oxoethyl]-2-methoxybenzamido} bicyclo[2.2.1]heptane-2-carboxamide] here?
Answer: 1290 nM

Question: How did the EC50 turn out when `COc1ccc(C2CC3CC(CO)CC32)cc1C(=O)N[C@H]1[C@@H](C(=O)Nc2ccc(F)c(C(F)(F)F)c2)[C@H]2CC[C@@H]1/C2=C\C1CC1` (single isomer, unassigned) [Example 351] was run?
Answer: 27.7 nM

Question: For `COc1ccc(S(=O)(=O)N2CC3CCC(C2)O3)cc1C(=O)N[C@H]1[C@@H](C(=O)Nc2ccc(F)c(C(F)(F)F)c2)[C@H]2CC[C@@H]1/C2=C\C(F)(F)F` [Example 214, (1R,2S,3R,4R,7Z)-N-[4-fluoro-3-(trifluoromethyl)phenyl]-3-(2-methoxy-5-{8-oxa-3-azabicyclo[3.2.1]octane-3-sulfonyl}benzamido)-7-(2,2,2-trifluoroethylidene) bicyclo[2.2.1] heptane-2-carboxamide], which EC50 is on record?
Answer: 272 nM

Question: Which EC50 does the source give for `COC(=O)C1CC2(C1)CC(c1ccc(OC)c(C(=O)N[C@@H]3C4CCC(/C4=C/C(F)(F)F)[C@@H]3C(=O)Nc3ccc(F)c(C(F)(F)F)c3)c1)C2` (single isomer, unassigned) [Example 149] here?
Answer: 857 nM

Question: For `COc1ccc(CCC(C)(C)O)cc1C(=O)NC1C2CCC(/C2=C/C2CCCOC2)[C@@H]1C(=O)Nc1ccc(F)c(C(F)(F)F)c1` (single isomer, unassigned) [Example 172, (7Z)-N-[4-fluoro-3-(trifluoromethyl)phe-nyl]-3-[5-(3-hydroxy-3-methylbutyl)-2-methoxybenzamido]-7-[(oxan-3-yl)methylidene]bicy-clo[2.2.1]heptane-2-carboxamide], which EC50 is on record?
Answer: 39 nM

Question: Which EC50 does the source give for `COc1ccc(COC2CCOCC2)cc1C(=O)N[C@H]1[C@@H](C(=O)Nc2ccc(F)c(C(F)(F)F)c2)[C@H]2CC[C@@H]1/C2=C\C1CC1` [Example 288, (1R,2S,3R,4R,7Z)-7-(cyclopropyl-methylidene)-N-[4-fluoro-3-(trifluoromethyl)phenyl]-3-{2-methoxy-5-[(oxan-4-yloxy)methyl]benzamido} bicyclo[2.2.1] heptane-2-carboxamide] here?
Answer: 58.7 nM

Question: With `COc1ccc(S(=O)(=O)N2CCOC[C@H]2CO)cc1C(=O)N[C@H]1[C@@H](C(=O)Nc2ccc(F)c(C(F)(F)F)c2)[C@H]2CC[C@@H]1/C2=C\C1CC1` [Example 224, (1R,2S,3R,4R,7Z)-7-(cyclopropylmethyl-idene)-N-[4-fluoro-3-(trifluoromethyl)phenyl]-3-(5-{[(3R)-3-(hydroxymethyl)morpholin-4-yl]sulfonyl}-2-methoxybenzamido) bicyclo[2.2.1] heptane-2-carboxamide] as the molecule, how does the EC50 read?
Answer: 80.3 nM

Question: How did the EC50 turn out when `COc1ccc(C#CC(C)(C)O)cc1C(=O)N[C@@H]1C2CCC(/C2=C/C(F)(F)F)[C@@H]1C(=O)Nc1ccc(F)c(C(F)(F)F)c1` (stereo partly drawn) [Example 70, (2S,3R,7Z)-N-[4-fluoro-3-(trifluoromethyl)phe-nyl]-3-[5-(3-hydroxy-3-methylbut-1-yn-1-yl)-2-methoxybenzamido]-7-(2,2,2-trifluoroethylidene)bi-cyclo[2.2.1]heptane-2-carboxamide] was run?
Answer: 309 nM

Question: For `COc1ccc(COC[C@@H]2C[C@@H]2C(=O)O)cc1C(=O)N[C@H]1[C@@H](C(=O)Nc2ccc(F)c(C(F)(F)F)c2)[C@H]2CC[C@@H]1/C2=C\C1CC1` [Example 292, (1S,2R)-2-{[(3-{[(1R.2R,3S,4R,7Z)-7-(cyclopropyl-methylidene)-3-{[4-fluoro-3-(trifluoromethyl)phenyl]carbamoyl}bicyclo[2.2.1]heptan-2-yl]carbamoyl}-4-methoxyphenyl)methoxy]methyl} cyclopropane-1-carboxylic acid], which EC50 is on record?
Answer: 28.4 nM

Question: With `COc1ccc(C(=O)N2CC3(COC3)C2)cc1C(=O)N[C@H]1[C@@H](C(=O)Nc2ccc(F)c(C(F)(F)F)c2)[C@H]2CC[C@@H]1/C2=C\C1CC1` [Example 248, (1R,2S,3R,4R,7Z)-7-(cyclopropylmethyl-idene)-N-[4-fluoro-3-(trifluoromethyl)phenyl]-3-(2-methoxy-5-{2-oxa-6-azaspiro[3.3]heptane-6-carbonyl}benzamido) bicyclo[2.2.1]heptane-2-carboxamide] as the molecule, how does the EC50 read?
Answer: 128 nM

Question: With `COc1ccc(CN2C(=O)NC3(CCCC3)C2=O)cc1C(=O)N[C@@H]1C2CCC(/C2=C/C2CC2)[C@@H]1C(=O)Nc1ccc(F)c(C(F)(F)F)c1` (stereo partly drawn) [Example 21, (2S,3R,7Z)-7-(cyclopropylmethyli-dene)-3-[5-({2,4-dioxo-1,3-diazaspiro[4.4]nonan-3-yl}methyl)-2-methoxybenzamido]-N-[4-fluoro-3-(trifluoromethyl)phe-nyl]bicyclo[2.2.1]hept-ane-2-carboxamide] as the molecule, how does the EC50 read?
Answer: 330 nM

Question: `COC(=O)[C@@H]1CCN(C(=O)Cc2ccc(OC)c(C(=O)NC3C(C(=O)Nc4ccc(F)c(C(F)(F)F)c4)[C@H]4CC[C@@H]3/C4=C\C3CC3)c2)C1` (stereo partly shown) [Example 356] was tested. Which EC50 did it give?
Answer: 4020 nM

Question: Which EC50 does the source give for `COc1ccc(CCC(C)(C)O)cc1C(=O)NC1C2CCC(/C2=C/C2CCCC2)[C@@H]1C(=O)Nc1ccc(F)c(C(F)(F)F)c1` (stereo partly shown) [Example 168, (7Z)-7-(cyclopentylmethyli-dene)-N-[4-fluoro-3-(trifluoromethyl)phe-nyl]-3-[5-(3-hydroxy-3-methylbutyl)-2-methoxybenzamido] bicyclo[2.2.1]heptane-2-carboxamide] here?
Answer: 8 nM

Question: How did the EC50 turn out when `COc1ccc(C2CCCC(O)C2)cc1C(=O)N[C@@H]1C2CCC(/C2=C/C(F)(F)F)[C@@H]1C(=O)Nc1ccc(F)c(C(F)(F)F)c1` (single isomer, unassigned) [Example 38] was run?
Answer: 250 nM

Question: For `COC(=O)C1CC(c2ccc(OC)c(C(=O)N[C@H]3[C@@H](C(=O)Nc4ccc(F)c(C(F)(F)F)c4)[C@H]4CC[C@@H]3/C4=C\C3CC3)c2)C1` (single isomer, unassigned) [Example 328], which EC50 is on record?
Answer: 21.3 nM

Question: `COc1ccc(CCCCCC#N)cc1C(=O)NC1C2CCC(/C2=C/C2CCC2)[C@@H]1C(=O)Nc1ccc(F)c(C(F)(F)F)c1` (stereo partly shown) [Example 190, (7Z)-3-[5-(5-cyanopentyl)-2-methoxybenzamido]-7-(cyclobutylmethyli-dene)-N-[4-fluoro-3-(trifluoromethyl)phe-nyl]bicyclo[2.2.1]hept-ane-2-carboxamide] was tested. Which EC50 did it give?
Answer: 23 nM

Question: How did the EC50 turn out when `COc1ccc(CCC(=O)N2CCC(O)CC2)cc1C(=O)N[C@H]1[C@@H](C(=O)Nc2ccc(F)c(C(F)(F)F)c2)[C@H]2CC[C@@H]1/C2=C\C(F)(F)F` [Example 320] was run?
Answer: 81.2 nM
